Experiments:
[1] = tested on: advanced ovarian and breast cancer; settings: clinical trials, late 1980s and early 1990s; cited from earlier work
c-myb RNA = experiment: Inhibition of oncogene c-myb RNA in ML-1 cells (northern blot); format: cell-based; settings: Homo sapiens, ML1, 10 ng/ml, P <0.01
Experimental: (§1) Cells were maintained in suspension culture in RPMI 1640 medium supplemented with 7.5% heat-inactivated FBS, Cells growth and viability were assayed by hemocytometer using trypan blue dye exclusion. RNA was isolated by the CsCl gradient modification. RNA pellets were washed twice by reprecipitation in ethanol and quantitated by absorbency at 260 nM. RNA analyzed by electrophoresis of 15 μg of RNA through 1.2% agarose formaldehyde gels followed by northern blot transfer to nitrocellulose.
(§2) Single-standard uniformly labeled DNA probes were prepared. Probe of c-myc was a 1.7 Kb cla-Eco RI restriction fragment containing the 3'exon region of human c-myc and probe of c-myb was 1.0 Kb myb-specific Bam HI fragment. Probes for n-ras contained DNA fragments using a modification of the PCR technique. Probes for myb, myc and n-ras were isolated by electrolution. The isolated fragments were labeled to high specific activity with [α^32 P]-dCTP (3000 ci/mmol). Prehybridization of the filter was performed. The hybridization mixer contained 50,000 cpm of probe. The probes were hybridized at 58° C. in 15 mM NaCl, 1.5 nM sodium citrate for 3 hours. After hybridization, they were exposed to XAR-5 film. Oncogene expression was quantitated by densitometer scanning of the autoradiography.

c-myc RNA = experiment: Inhibition of oncogene c-myc RNA in ML-1 cells (northern blot); format: cell-based; settings: Homo sapiens, ML1, 10 ng/ml, P <0.01
Experimental: as §1, §2

n-ras RNA = experiment: Inhibition of oncogene n-ras RNA in ML-1 cells (northern blot); format: cell-based; settings: Homo sapiens, ML1, 10 ng/ml, P <0.01
Experimental: as §1, §2

mouse epidermis = settings: in words; cited from earlier work

CC(=O)O[C@H]1C(=O)[C@@]2(C)[C@H]([C@H](OC(=O)c3ccccc3)[C@]3(O)C[C@H](OC(=O)[C@H](O)[C@@H](NC(=O)c4ccccc4)c4ccccc4)C(C)=C1C3(C)C)[C@]1(OC(C)=O)CO[C@@H]1C[C@@H]2O [Taxol]
clinical activity against advanced ovarian and breast cancer [1]: impressive clinical activities

COc1ccc2cc3[n+](cc2c1OC)CCc1cc2c(cc1-3)OCO2 [BE, Berberine]
inhibition at 0.01 µg/mL (c-myb RNA): 52 ± 5.8%
inhibition at 0.01 µg/mL (c-myc RNA): 50.5 ± 6.1%
inhibition at 0.01 µg/mL (n-ras RNA): 30.2 ± 3.5%

CCCCCCCCCCCCCC(=O)O[C@@H]1[C@@H](C)[C@@]2(O)[C@@H](C=C(CO)C[C@]3(O)C(=O)C(C)=C[C@@H]23)[C@@H]2C(C)(C)[C@]12OC(C)=O [TPA, tetradecanoyphorbol-13-acetate]
effect on [3H] thymidine incorporation in mouse epidermis (mouse epidermis): remarkable increase

O=C(O)[C@H]1O[C@@H](Oc2cc3oc(-c4ccccc4)cc(=O)c3c(O)c2O)[C@H](O)[C@@H](O)[C@@H]1O [BA, Baicalin]
inhibition at 0.01 µg/mL (c-myb RNA): 24.4 ± 3%
inhibition at 0.01 µg/mL (c-myc RNA): 29.3 ± 3.4%
inhibition at 0.01 µg/mL (n-ras RNA): 20.6 ± 3%

From patent publication US6290995A, “Plant drug for preventing cancer II” (priority 2000, dated 2001)
